{
  "source": "paper PMC5664379",
  "about": "(2017)",
  "system": "G4 DNA [(CG3)2CGC(AG3)2G] (DNA, G4) CGGGCGGGCGCAGGGAGGGG",
  "assay": "UV-vis mole-ratio titration, global fit",
  "details": "buffer pH 7.1, 25 °C; intrinsic, two equivalent anticooperative sites, ω 0.43; stepwise fit equally good: 7.07, 5.79",
  "data": [
    {"smiles": "C[n+]1ccc(-c2c3nc(c(-c4cc[n+](C)cc4)c4ccc([nH]4)c(-c4cc[n+](C)cc4)c4nc(c(-c5cc[n+](C)cc5)c5ccc2[nH]5)C=C4)C=C3)cc1", "values": [
      {"measurement": "lg K1-2", "result": 6.79}
    ]}
  ]
}
